Consider 1 molecule from PMC7866395, “A Pipeline towards the Biochemical Characterization of the Arabidopsis GT14 Family” (International Journal of Molecular Sciences, 2021).

Holding throughout (type): biochemical
The target of experiment [1] is T1, AT3G15350 (245, AtGlcAT14E) (Arabidopsis thaliana, UniProt Q9LE60).
T1 construct: full-length CDS, C-terminal YFP and HA tags (pEarleyGate 101), transient expression in Nicotiana benthamiana, Triton X-100 treated microsomal membranes, about 75 kDa fusion
T1 sequence (Q9LE60 1-424): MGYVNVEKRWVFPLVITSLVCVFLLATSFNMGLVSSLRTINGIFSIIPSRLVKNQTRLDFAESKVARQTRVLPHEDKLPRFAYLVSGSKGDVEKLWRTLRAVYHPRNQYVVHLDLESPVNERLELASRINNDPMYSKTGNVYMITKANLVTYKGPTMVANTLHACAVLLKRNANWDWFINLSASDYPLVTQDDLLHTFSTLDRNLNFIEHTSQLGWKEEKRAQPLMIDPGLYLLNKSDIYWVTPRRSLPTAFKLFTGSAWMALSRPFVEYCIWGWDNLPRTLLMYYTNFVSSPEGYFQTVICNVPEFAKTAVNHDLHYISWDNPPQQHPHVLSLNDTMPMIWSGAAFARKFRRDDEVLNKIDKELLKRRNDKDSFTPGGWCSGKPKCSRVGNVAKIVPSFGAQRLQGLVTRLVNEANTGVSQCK
Nature of the experiment: glucuronosyltransferase assay, RP-HPLC fluorescence and LC-ESI-MS of products. Particulars: donor 0.4 mM; acceptor 5 uM β-1,3-Gal5-AA; 25 °C, 2 h; microsomes.

A further experiment concerns the target T2, AT4G27480 (248) (Arabidopsis thaliana, UniProt F4JIW2).
T2 construct: full-length CDS, C-terminal YFP and HA tags (pEarleyGate 101), transient expression in Nicotiana benthamiana, Triton X-100 treated microsomal membranes, about 75 kDa fusion
Nature of the experiment: glucuronosyltransferase assay, RP-HPLC with fluorescence detection. Particulars: donor 0.4 mM; acceptor 5 uM β-Gal-NBD, β-1,6-Gal4-AA or β-1,3-Gal5-AA; 25 °C, 2 h; microsomes.

Experiment [2] concerns the target T3, AT5G15050 (249, AtGlcAT14B) (Arabidopsis thaliana, UniProt Q9LFQ0).
T3 construct: gene GLCAT14B; full-length CDS, C-terminal YFP and HA tags (pEarleyGate 101), transient expression in Nicotiana benthamiana, Triton X-100 treated microsomal membranes, about 75 kDa fusion
T3 sequence (Q9LFQ0 1-434): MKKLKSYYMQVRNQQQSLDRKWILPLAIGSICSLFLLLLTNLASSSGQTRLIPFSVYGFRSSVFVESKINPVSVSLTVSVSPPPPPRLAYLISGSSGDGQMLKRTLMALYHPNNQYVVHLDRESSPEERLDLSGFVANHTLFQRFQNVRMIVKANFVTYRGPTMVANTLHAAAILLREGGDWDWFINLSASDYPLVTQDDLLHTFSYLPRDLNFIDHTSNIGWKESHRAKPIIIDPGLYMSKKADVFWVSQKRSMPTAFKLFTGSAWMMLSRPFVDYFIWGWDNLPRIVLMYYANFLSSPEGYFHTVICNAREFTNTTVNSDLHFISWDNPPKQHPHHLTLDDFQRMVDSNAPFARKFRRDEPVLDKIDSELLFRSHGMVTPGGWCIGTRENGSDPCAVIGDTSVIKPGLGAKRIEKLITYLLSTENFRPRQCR
The description is as above. To be noted: donor 0.4 mM; acceptor 5 uM β-Gal-NBD, β-1,6-Gal4-AA or β-1,3-Gal5-AA; 25 °C, 2 h; microsomes.

T2 sequence (F4JIW2 1-421): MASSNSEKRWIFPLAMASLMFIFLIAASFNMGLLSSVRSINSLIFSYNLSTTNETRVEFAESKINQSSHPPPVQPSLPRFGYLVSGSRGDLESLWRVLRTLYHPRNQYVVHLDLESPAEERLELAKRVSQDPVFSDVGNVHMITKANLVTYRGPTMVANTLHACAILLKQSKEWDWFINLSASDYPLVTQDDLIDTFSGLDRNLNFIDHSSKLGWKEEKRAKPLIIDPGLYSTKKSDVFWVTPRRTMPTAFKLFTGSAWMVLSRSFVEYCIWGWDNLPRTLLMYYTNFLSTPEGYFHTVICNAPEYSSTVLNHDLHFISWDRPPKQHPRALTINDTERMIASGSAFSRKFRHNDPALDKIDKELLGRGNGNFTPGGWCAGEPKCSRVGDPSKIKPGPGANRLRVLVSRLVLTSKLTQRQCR

Regarding `O=C(O)[C@H]1O[C@H](OP(=O)(O)OP(=O)(O)OC[C@H]2O[C@@H](n3ccc(=O)[nH]c3=O)[C@H](O)[C@@H]2O)[C@H](O)[C@@H](O)[C@@H]1O` [UDP-GlcA], the “glucuronosyltransferase assay, RP-HPLC fluorescence and LC-ESI-MS of products” value in experiment [1] is “However, only UDP-GlcA was an active substrate donor”. The “glucuronosyltransferase assay, RP-HPLC with fluorescence detection” value was “AT4G27480 show the GlcAT activity using the three different acceptors” on AT4G27480 (248); “This result confirms that AtGlcAT14B and AtGlcAT14E have GlcAT activity” in experiment [2].
